Where two headings read alike, the source gives them in different places.
Assays:
human red blood cells = experiment: Haemolytic assay; type: cell-based; details: for SIrb (selectivity index on red blood cell) = HC50/IC50: HC50 on red blood cells / IC50 on L. amazonensis promastigotes
[1] = system: promastigotes of Leishmania amazonensis (IFLA/BR/67/PH8); experiment: Antileishmanial activity against promastigotes (MTT viability); type: cell-based
Method: The promastigote viabilities were determined by the ability of living cells to reduce the yellow MTT (3-(4,5-dimethylthiazol-2-yl)-2,5-diphenyltetrazolium bromide, a tetrazole) to purple formazan. Promastigote forms of Leishmania amazonensis (IFLA/BR/67/PH8) in the log phase of growth were incubated at 25 °C in 96-well cellular culture plates (TPP, Trasadingen, Switzerland) with 1 × 10^5 cells/well in 100 μL Schneider’s Drosophila medium supplemented with 20% of FBS in the presence or absence of different concentrations of compounds 4–15. The growth of promastigotes forms was evaluated simultaneously in the presence of Glucantime®, as reference drug. After 72 h of incubation, […] of a 5 mg·mL^−1 MTT solution was added. After 4 h of incubation at 25 °C, the formed product formazan was dissolved in […] of sodium dodecyl sulfate (SDS) at 10% for 24 h, and the absorbance was measured by spectrophotometry at a 545 nm wavelength. The percentage viability was calculated from the ratio of OD readings in the wells with compounds versus the wells without compounds × 100. The concentration that inhibited 50% of growth (IC50) was determined by regression analysis using the SPSS 8.0 software for Windows (IBM, New York, NY, USA). All experiments were performed at least three times, and each experiment was performed in triplicate. […]

[2] = haemolysis of human red blood cells
[3] = Leishmania amazonensis, promastigotes of L. amazonensis, 72 h incubation, MTT, average of three independent experiments ± standard error of the mean, read-out: IC50

Molecule | SIrb (selectivity index on red blood cell) = HC50/IC50 (human red blood cells) | HC50 (human red blood cells; [2]) [µM] | IC50 [1, 3] [µM] | also measured
C=CCc1ccc(OC(=O)C(=C)C(O)c2cccc([N+](=O)[O-])c2)c(OC)c1 (stereo not shown) [Compound 8, 4-Allyl-2-methoxyphenyl-2-(hydroxy(3-nitrophenyl)methyl)acrylate] | >38.13 | >400 | 10.5 ± 0.52 | 
C=C(C(=O)Oc1cc(C)ccc1C(C)C)C(O)c1ccc([N+](=O)[O-])cc1 (stereo not shown) [Compound 10, 2-Isopropyl-5-methylphenyl 2-(hydroxy(4-nitrophenyl)methyl)acrylate] |  |  | 11.4 ± 0.57 | 
C=C(C(=O)Oc1cc(C)ccc1C(C)C)C(O)c1ccccc1[N+](=O)[O-] (stereo not shown) [Compound 12, 2-Isopropyl-5-methylphenyl 2-(hydroxy(2-nitrophenyl)methyl)acrylate] |  |  | 5.91 ± 0.3 | 
C[C@@H]1[C@H](O)[C@@H](C)/C=C/C=C/C=C/C=C/C=C/C=C/C=C/[C@H](O[C@@H]2O[C@H](C)[C@@H](O)[C@H](N)[C@@H]2O)C[C@@H]2O[C@](O)(C[C@@H](O)C[C@@H](O)[C@H](O)CC[C@@H](O)C[C@@H](O)CC(=O)O[C@H]1C)C[C@H](O)[C@H]2C(=O)O [AmphotericinB, amphotericin B] | 22.34 | 11.61 | 0.52 ± 0.03 | 
Cc1ccc(C(C)C)c(O)c1 [Compound 5, thymol] |  |  | 115 ± 5.77 | 
C=CCc1ccc(O)c(OC)c1 [Compound 4, eugenol] | >5.18 | >400 |  | IC50 ([1]; Leishmania amazonensis, 72 h): 77.2 ± 1.77 µM
C=C(C(=O)Oc1cc(C)ccc1C(C)C)C(O)c1cccc([N+](=O)[O-])c1 (stereo not shown) [Compound 11, 2-Isopropyl-5-methylphenyl 2-(hydroxy(3-nitrophenyl)methyl)acrylate] |  |  | 10.6 ± 0.53 | 
C=CCc1ccc(OC(=O)C(=C)C(O)c2ccc([N+](=O)[O-])cc2)c(OC)c1 (stereo not shown) [Compound 7, 4-Allyl-2-methoxyphenyl 2-(hydroxy(4-nitrophenyl)methyl)acrylate] | >45.71 | >400 | 8.75 ± 0.44 | 
C=C(C(=O)Oc1cc(C(C)C)ccc1C)C(O)c1ccccc1[N+](=O)[O-] (stereo not shown) [Compound 15, 5-Isopropyl-2-methylphenyl 2-(hydroxy(2-nitrophenyl)methyl)acrylate] |  |  | 13.6 ± 0.68 | 
C=C(C(=O)Oc1cc(C(C)C)ccc1C)C(O)c1cccc([N+](=O)[O-])c1 (stereo not shown) [Compound 14, 5-Isopropyl-2-methylphenyl 2-(hydroxy(3-nitrophenyl)methyl)acrylate] |  |  | 22.3 ± 1.12 | 
C=CCc1ccc(OC(=O)C(=C)C(O)c2ccccc2[N+](=O)[O-])c(OC)c1 (stereo not shown) [Compound 9, 4-Allyl-2-methoxyphenyl 2-(hydroxy(2-nitrophenyl)methyl)acrylate] | >84.92 | >400 | 4.71 ± 0.24 | 
C=C(C(=O)Oc1cc(C(C)C)ccc1C)C(O)c1ccc([N+](=O)[O-])cc1 (stereo not shown) [Compound 13, 5-Isopropyl-2-methylphenyl 2-(hydroxy(4-nitrophenyl)methyl)acrylate] |  |  | 18.1 ± 0.9 | 
Cc1ccc(C(C)C)cc1O [Compound 6, carvacrol] |  |  |  | IC50 ([1]; Leishmania amazonensis, 72 h): 138 ± 6.91 µM
Glucantime^® |  |  |  | HC50 (human red blood cells): 1175.02 µM; IC50 ([1]; promastigotes of L. amazonensis, 72 h incubation, MTT, average of three independent experiments ± standard error of the mean, read-out: IC50): 1630 ± 437 µM

Source: paper PMC6274563, “Synthesis and In Vitro Anti Leishmania amazonensis Biological Screening of Morita-Baylis-Hillman Adducts Prepared from Eugenol, Thymol and Carvacrol” (Molecules, 2016)
